Test results from patent US11396522B2, “Bis-acetal-based substrates for imaging exo-glycosidase activity” (ALECTOS THERAPEUTICS INC., priority 2017, dated 2022).

Experiments:
[1] = molecular target: T1, hOGA (Homo sapiens, UniProt O60502); experiment: Interrupted assay for determination of hemiacetal breakdown; type: biochemical; conditions: hemiacetal generated from the substrate; hOGA stopped after 1 min with Thiamet-G 100 μM
T1 construct: started by addition of hOGA (WT, Full-length, expressed in E. coli. as previously described); made in house; host or cells: E. coli
T1 sequence (O60502 1-916): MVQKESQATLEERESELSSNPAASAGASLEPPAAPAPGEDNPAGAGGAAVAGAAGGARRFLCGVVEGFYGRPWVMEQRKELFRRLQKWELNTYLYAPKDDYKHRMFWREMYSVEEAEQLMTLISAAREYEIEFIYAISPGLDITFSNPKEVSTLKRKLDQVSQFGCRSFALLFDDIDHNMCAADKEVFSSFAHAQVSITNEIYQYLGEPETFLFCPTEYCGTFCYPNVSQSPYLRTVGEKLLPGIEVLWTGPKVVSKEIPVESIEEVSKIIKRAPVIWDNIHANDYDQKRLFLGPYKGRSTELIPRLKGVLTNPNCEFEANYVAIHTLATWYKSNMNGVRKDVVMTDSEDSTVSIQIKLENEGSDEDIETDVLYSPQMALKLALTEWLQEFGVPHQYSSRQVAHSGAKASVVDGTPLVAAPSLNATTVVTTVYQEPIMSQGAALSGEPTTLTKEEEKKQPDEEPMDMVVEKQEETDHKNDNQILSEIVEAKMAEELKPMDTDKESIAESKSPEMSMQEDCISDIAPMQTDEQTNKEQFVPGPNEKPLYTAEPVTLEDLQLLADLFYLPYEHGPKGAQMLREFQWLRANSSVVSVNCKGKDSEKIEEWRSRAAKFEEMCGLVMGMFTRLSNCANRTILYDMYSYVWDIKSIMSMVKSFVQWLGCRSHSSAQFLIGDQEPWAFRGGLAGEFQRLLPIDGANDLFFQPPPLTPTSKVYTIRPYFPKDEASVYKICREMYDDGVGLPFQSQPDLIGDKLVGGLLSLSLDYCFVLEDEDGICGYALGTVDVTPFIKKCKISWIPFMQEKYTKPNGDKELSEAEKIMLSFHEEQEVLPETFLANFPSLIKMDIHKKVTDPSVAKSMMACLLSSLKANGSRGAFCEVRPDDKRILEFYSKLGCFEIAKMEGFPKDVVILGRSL
Experimental: For some experiments, fluorescence kinetic assays were performed using a Varian Cary Eclipse Spectrophotometer set for 335/493 nm excitation/emission wavelengths. Slits were set at 10 nm and the detector was set on Medium voltage. Enzymatic reactions with human OGA were carried out in PBS at 37° C. and were started by addition of hOGA (WT, Full-length, expressed in E. coli. as previously described) in a total volume of 160 μL (Starna sub-micro Fluorometer cuvette). For measurements of rates using different concentrations of substrates, a hOGA concentration of 100 nM was used. For hOGA titration, 25 μM of Glyco-BABS were added to various concentration of hOGA. For interrupted assay, reaction was started by addition of hOGA (680 nM final) in solutions of GlcNAc-BABS in PBS. […] For hemiacetal breakdown rate measurements, data after Thiamet-G addition was extracted and fitted using Prism software. EDANS standard curve was established using endpoint fluorescence measurements of serial dilutions of EDANS in the relevant buffer using the same instrument parameters. Inner-Filter effect measurements were carried out in cuvette by measuring fluorescence of several concentrations of EDANS in presence of various concentrations of GlcNAc-BABS. Kinetics with Glc-BABS and GBA enzymes (GBA1 and GBA3 purchased from R&D Systems), kinetics with GALC (R&D systems) and Gal-BABS, pH stability, quenching efficiency, some inner-filter effect experiments and lysates experiments were carried out using a Molecular Devices SpectraMax i3× plate reader. Emission/Excitation wavelengths were set at 350 and 490 nm respectively for EDANS/DABCYL Glyco-BABS and at 565 and 610 nm respectively for TAMRA/BHQ2 Glyco-BABS. Fluorescence measurements were performed using Costar 96-well black plates or Nunc 384-well black plates after sample preparation in 96-well mixing plates. For GBA1, the continuous assay was performed in citrate buffer (50 mM, pH 5.5) in the presence of 0.1% Triton, 1 mg/mL BSA and 0.14% taurodeoxycholate at 25° C. […]

[2] = pH stability of Glyco-BABS; type: physicochemical; conditions: 5 μM, up to 72 h, pH 2 to 10
Excerpt: One concern with the Glyco-BABS design was the known lability of acetals under acidic conditions that has been exploited in pH-sensitive prodrugs or linkers for drug delivery.^41,42 However, we recognized that carbohydrate anomeric acetals are chemically distinct from regular acetals. Due to stabilization by the endocyclic oxygen, we expected these bis-acetals would show stability across a range of physiological pH values. We therefore assessed the stability of the bis-acetal motif toward acid and base hydrolysis (FIG. 8). To do so, we tested the pH stability of 5 μM of GlcNAc-Br-BABS 1, GlcNAc-OH-BABS 2, Glc-OH-BABS 6 and Glc-H-BABS 7 at different pH over time. We prepared solutions at various pH by mixing 0.2 M KCl+0.1 M HCl with 0.2 M KCl+0.1 M KOH. Fluorescence of EDANS and Glyco-BABS solutions (5 μM, 45 μL) at different pH was measured at different time points in Nunc 384-well plates using a SpectraMax i3× plate reader. Data (triplicates) support the highly efficient quenching and the stability of these substrates over a wide range of pH.

[3] = molecular target: T1, hOGA; experiment: Turnover by hOGA within SK-N-SH lysate; type: biochemical
Experimental: For cell lysates experiments, SK-N-SH cells were cultured in EMEM media supplemented with 10% FBS and Penicillin/Streptomycin antibiotics. Cells were collected, washed with PBS and lyzed using ice-cold NP-40 lysis buffer (TRIS-HCl 50 mM pH 7.4, NP-40 1%, NaCl 150 mM). After centrifugation, the supernatant was diluted in PBS. The quantity of lysate used in each measurement well (384-well plate) was equivalent to 25000 cells. […] Reactions were started by adding the substrate at a final concentration of 20 μM. This experiment was carried out in quadruplicates and the rates were determined by establishing a standard curve for EDANS fluorescence in the SK-N-SH lysate.
To evaluate the compatibility of the BABS design with complex cellular extracts, we also measured the turnover of GlcNAc-Br-BABS in SK-N-SH cell lysate in the presence of increasing concentrations of hOGA (FIG. 9). […] Buffer control consists of PBS supplemented to lysis buffer. […] Error bars represent standard deviation over quadruplicate.

[4] = molecular target: T2, human O-GlcNAcase (hOGA) (Homo sapiens, UniProt O60502); conditions: literature value (ref 39); cited from earlier work
T2 construct: started by addition of hOGA (WT, Full-length, expressed in E. coli. as previously described); made in house; host or cells: E. coli
T2 sequence (O60502 1-916): T1 sequence (O60502 1-916)

CC(=O)N[C@H]1[C@H](O[C@@H](OCCOCCn2cc(CNC(=O)c3ccc(/N=N/c4ccc(N(C)C)cc4)cc3)nn2)[C@@](C)(Br)C(=O)NCCNc2cccc3c(S(=O)(=O)O)cccc23)O[C@H](CO)[C@@H](O)[C@@H]1O [Compound 1, 5-((2-((2R,3R)-3-(((2S,3R,4R,5S,6R)-3-acetamido-4,5-dihydroxy-6-(hydroxymethyl)tetrahydro-2H-pyran-2-yl)oxy)-2-bromo-3-(2-(2-(4-((4-((E)-(4-(dimethylamino)phenyl)diazenyl)benzamido)methyl)-1H-1,2,3-triazol-1-yl)ethoxy)ethoxy)-2-methylpropanamido)ethyl)amino)naphthalene-1-sulfonic Acid]
first order rate constant (k3) for hemiacetal breakdown [1]: 0.01 s⁻¹ | pH stability (increase of fluorescence) [2]: no significant increase of fluorescence | turnover in SK-N-SH cell lysate with added hOGA ([3]; 20 μM substrate, 25° C., increasing hOGA): efficiently processed within lysates

CCNC1=N[C@@H]2[C@@H](O)[C@H](O)[C@@H](CO)O[C@@H]2S1 [Thiamet-G, (3aR,5R,6S,7R,7aR)-2-(ethylamino)-3a,6,7,7a-tetrahydro-5-(hydroxymethyl)-5H-Pyrano[3,2-d]thiazole-6,7-diol, reference compound]
inhibition of substrate turnover in SK-N-SH lysate ([3]; Thiamet-G 200 μM, substrate GlcNAc-Br-BABS 1): completely inhibits

CO[C@@H]1O[C@H](CO)[C@@H](O)[C@H](O)[C@H]1NC(C)=O [methyl β-D-N-acetylglucopyranoside]
second order rate constant with hOGA [4]: 440 M⁻¹ s⁻¹
